Columns and labels:
[1] = pH measurement of acidifiers with a glass electrode; format: physicochemical; settings: after 1 min
Text: Apparent pH is the pH reading measured by a glass pH electrode. The preferred acidifiers are 37% HCl, 10% HCl, sulfuric acid, o-phosphoric acid, nitric acid, acetic acid, L (+)-lactic acid, salicylic acid, and glycolic acid. The particularly preferred acidifiers are 37% HCl and 10% HCl. If the total weight of the acidified composition is 100 parts, the acidifier should be about 0.05 to about 50% w/w (w/w=weight/weight), preferably, from about 0.1% to about 10%, more preferably form about 0.5% to about 5%.

onychomycosis = settings: after nail removal; cited from earlier work

| pH reading [1] | SMILES | Effectiveness in topically treating onychomycosis (onychomycosis) |
| --- | --- | --- |
| -0.19 to -0.28 | CC(=O)O [Acetic acid] | – |
| 0.43 | O=C(O)CO [Glycolic Acid] | – |
| 0.31 | C[C@H](O)C(=O)O [L(+)-lactic acid] | – |
| – | CC(=O)N1CCN(c2ccc(OCC3COC(Cn4ccnc4)(c4ccc(Cl)cc4Cl)O3)cc2)CC1 (stereo not drawn) [ketoconazole] | effective |
| – | Clc1ccc(COC(Cn2ccnc2)c2ccc(Cl)cc2Cl)c(Cl)c1 (stereo not drawn) [miconazole] | effective |

| SMILES | pH reading [1] | Effectiveness in topically treating onychomycosis (onychomycosis) |
| --- | --- | --- |
| O=C(O)c1ccccc1O [Salicylic acid] | 2.92 | – |
